pKi: −log10 of the molar value.
Target: human CB2 receptor (CNR2) (Homo sapiens (Human), UniProt P34972)
Assay: Radioligand binding assay, human CB2
Conditions: HEK cell membranes expressing human CNR2, [3H]-CP-55,940 radioligand
Method: The affinity of the compounds of the invention for cannabinoid CB1 receptors was determined using recommended amounts of membrane preparations (PerkinElmer) of human embryonic kidney (HEK) cells expressing the human CNRI or CNR2 receptors in conjunction with 1.5 or 2.6 nM [3H]-CP-55,940 (Perkin Elmer) as radioligand, respectively. Binding was performed in binding buffer (50 mM Tris, 5 mM MgCl2, 2.5 mM EDTA, and 0.5% (wt/vol) fatty acid free BSA, pH 7.4 for CB1 receptor and 50 mM Tris, 5 mM MgCl2, 2.5 mM EGTA, and 0.1% (wt/vol) fatty acid free BSA, pH 7.4 for CB2 receptor) in a total volume of 0.2 ml for 1 h at 30° C. shaking. The reaction was terminated by rapid filtration through microfiltration plates coated with 0.5% polyethylenimine (UniFilter GF/B filter plate; Packard). Bound radioactivity was analyzed for Ki using nonlinear regression analysis (Activity Base, ID Business Solution, Limited), with the Kd values for [3H]CP55,940 determined from saturation experiments. The compounds of formula (I) show an excellent affinity for the CB2 receptor.
The compounds according to formula (I) have an activity in the above assay (Ki) between 0.5 nM and 10 μM. Particular compounds of formula (I) have an activity in the above assay (Ki) between 0.5 nM and 3 μM. Other particular compounds of formula (I) have an activity in the above assay (Ki) between 0.5 nM and 100 nM.

Sequence of human CB2 receptor (CNR2) (P34972 whole entry): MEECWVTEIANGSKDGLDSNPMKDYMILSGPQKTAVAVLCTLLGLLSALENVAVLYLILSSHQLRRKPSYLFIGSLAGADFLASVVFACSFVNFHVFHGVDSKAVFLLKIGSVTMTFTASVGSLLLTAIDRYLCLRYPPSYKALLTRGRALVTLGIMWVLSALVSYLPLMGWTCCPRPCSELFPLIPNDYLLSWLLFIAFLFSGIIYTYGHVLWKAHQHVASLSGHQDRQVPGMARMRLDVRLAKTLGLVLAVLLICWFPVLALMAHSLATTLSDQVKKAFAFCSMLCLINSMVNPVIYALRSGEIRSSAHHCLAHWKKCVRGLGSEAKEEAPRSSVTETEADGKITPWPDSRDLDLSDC

SMILES | pKi
CC(C)C[C@@H](COCCF)NC(=O)c1ccc(N2CC(F)(F)C2)c(OCC2CC2)n1 [Example 26, 6-(Cyclopropylmethoxy)-5-(3,3-difluoroazetidin-1-yl)-N-[(2S)-1-(2-fluoroethoxy)-4-methylpentan-2-yl]pyridine-2-carboxamide] | 7.62
CCC(CC)(NC(=O)c1ccc(N2CC(F)(F)C2)c(OCC2CC2)n1)C(=O)OCF [Example 4, Fluoromethyl 2-{[6-(cyclopropylmethoxy)-5-(3,3-difluoroazetidin-1-yl)pyridine-2-carbonyl]amino}-2-ethylbutanoate] | 8.22
COC1CN(c2ccc(C(=O)N[C@@H](C)COCCCF)nc2OCC2CC2)C1 [Example 33, 6-(Cyclopropylmethoxy)-N-[(2S)-1-(3-fluoropropoxy)propan-2-yl]-5-(3-methoxyazetidin-1-yl)pyridine-2-carboxamide] | 5.55
C[C@@H](COCCF)NC(=O)c1ccc(N2CCCC2)c(OCC2CC2)n1 [Example 23, 6-(Cyclopropylmethoxy)-N-[(2S)-1-(2-fluoroethoxy)propan-2-yl]-5-(pyrrolidin-1-yl)pyridine-2-carboxamide] | 6.31
CCC(CC)(NC(=O)c1ccc(N2CC(F)(F)C2)c(OCC2CC2)n1)C(=O)OCCCF [Example 6, 3-Fluoropropyl 2-{[6-(cyclopropylmethoxy)-5-(3,3-difluoroazetidin-1-yl)pyridine-2-carbonyl]amino}-2-ethylbutanoate] | 7.72
CCC(CC)(NC(=O)c1ccc(N2CCCC2)c(OCC2CC2)n1)C(=O)OCCCF [Example 7, 3-Fluoropropyl 2-{[6-(cyclopropylmethoxy)-5-(pyrrolidin-1-yl)pyridine-2-carbonyl]amino}-2-ethylbutanoate] | 8.30
CCC(CC)(NC(=O)c1ccc(N2CC(F)(F)C2)c(OCC2CC2)n1)C(=O)OCCF [Example 5, 2-Fluoroethyl 2-{[6-(cyclopropylmethoxy)-5-(3,3-difluoroazetidin-1-yl)pyridine-2-carbonyl]amino}-2-ethylbutanoate] | 8.15
CC(C)C[C@H](NC(=O)c1ccc(N2CCCC2)c(OCC2CC2)n1)C(=O)OCCCF [Example 15, 3-Fluoropropyl N-[6-(cyclopropylmethoxy)-5-(pyrrolidin-1-yl)pyridine-2-carbonyl]-L-leucinate] | 7.40
CC(C)C[C@@H](COCCF)NC(=O)c1ccc(N2CCCC2)c(OCC2CC2)n1 [Example 17, 6-(Cyclopropylmethoxy)-N-[(2S)-1-(2-fluoroethoxy)-4-methylpentan-2-yl]-5-(pyrrolidin-1-yl)pyridine-2-carboxamide] | 8.00
CCC(CC)(COCCCF)NC(=O)c1ccc(N2CC(OC)C2)c(OCC2CC2)n1 [Example 36, 6-(Cyclopropylmethoxy)-N-{3-[(3-fluoropropoxy)methyl]pentan-3-yl}-5-(3-methoxyazetidin-1-yl)pyridine-2-carboxamide] | 7.17
CCC(CC)(NC(=O)c1ccc(N2CC(OC)C2)c(OCC2CC2)n1)C(=O)OCCF [Example 2, 2-Fluoroethyl 2-{[6-(cyclopropylmethoxy)-5-(3-methoxyazetidin-1-yl)pyridine-2-carbonyl]amino}-2-ethylbutanoate] | 8.70
COC1CN(c2ccc(C(=O)N[C@@H](CC(C)C)C(=O)OCCF)nc2OCC2CC2)C1 [Example 11, 2-Fluoroethyl N-[6-(cyclopropylmethoxy)-5-(3-methoxyazetidin-1-yl)pyridine-2-carbonyl]-L-leucinate] | 7.82
CCC(CC)(NC(=O)c1ccc(N2CC(OC)C2)c(OCC2CC2)n1)C(=O)OCF [Example 1, Fluoromethyl 2-{[6-(cyclopropylmethoxy)-5-(3-methoxyazetidin-1-yl)pyridine-2-carbonyl]amino}-2-ethylbutanoate] | 8.70
CCC(CC)(COCF)NC(=O)c1ccc(N2CC(OC)C2)c(OCC2CC2)n1 [Example 34, 6-(Cyclopropylmethoxy)-N-{3-[(fluoromethoxy)methyl]pentan-3-yl}-5-(3-methoxyazetidin-1-yl) pyridine-2-carboxamide] | 7.48
